Source: patent US10065963B2 (Incyte Corporation, priority 2015, dated 2018)
Where a name gives a salt, the structure may show the parent alone. Read-outs that look alike come from different tables or passages of the source.

Assays:
[1] = molecular target: human JAK1 (a.a. 837-1142) (Homo sapiens, UniProt P23458); assay: In vitro JAK kinase assay (JAK1); assay type: biochemical; settings: 1 mM ATP
[2] = molecular target: human JAK2 (a.a. 828-1132) (Homo sapiens (Human), UniProt O60674); assay: In vitro JAK kinase assay (JAK2); assay type: biochemical; settings: IC50 ratio, 1 mM ATP
Sequence of human JAK2 (a.a. 828-1132) (O60674 828-1132): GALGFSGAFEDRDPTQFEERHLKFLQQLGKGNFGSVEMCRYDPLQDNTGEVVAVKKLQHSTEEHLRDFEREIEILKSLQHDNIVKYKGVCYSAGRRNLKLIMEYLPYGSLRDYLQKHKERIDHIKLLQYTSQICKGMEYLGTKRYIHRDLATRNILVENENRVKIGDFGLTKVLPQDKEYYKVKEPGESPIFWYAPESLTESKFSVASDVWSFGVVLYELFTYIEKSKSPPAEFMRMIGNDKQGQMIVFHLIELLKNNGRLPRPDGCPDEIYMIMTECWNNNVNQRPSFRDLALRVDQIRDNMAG

[3] = molecular target: PI3Kγ (p110γ) Recombinant Human Protein (Homo sapiens (Human), UniProt P48736); assay: PI3K-γ scintillation proximity assay; assay type: biochemical; settings: 2 μM ATP, 20 μM PIP2
Sequence of PI3Kγ (p110γ) Recombinant Human Protein (P48736 whole entry): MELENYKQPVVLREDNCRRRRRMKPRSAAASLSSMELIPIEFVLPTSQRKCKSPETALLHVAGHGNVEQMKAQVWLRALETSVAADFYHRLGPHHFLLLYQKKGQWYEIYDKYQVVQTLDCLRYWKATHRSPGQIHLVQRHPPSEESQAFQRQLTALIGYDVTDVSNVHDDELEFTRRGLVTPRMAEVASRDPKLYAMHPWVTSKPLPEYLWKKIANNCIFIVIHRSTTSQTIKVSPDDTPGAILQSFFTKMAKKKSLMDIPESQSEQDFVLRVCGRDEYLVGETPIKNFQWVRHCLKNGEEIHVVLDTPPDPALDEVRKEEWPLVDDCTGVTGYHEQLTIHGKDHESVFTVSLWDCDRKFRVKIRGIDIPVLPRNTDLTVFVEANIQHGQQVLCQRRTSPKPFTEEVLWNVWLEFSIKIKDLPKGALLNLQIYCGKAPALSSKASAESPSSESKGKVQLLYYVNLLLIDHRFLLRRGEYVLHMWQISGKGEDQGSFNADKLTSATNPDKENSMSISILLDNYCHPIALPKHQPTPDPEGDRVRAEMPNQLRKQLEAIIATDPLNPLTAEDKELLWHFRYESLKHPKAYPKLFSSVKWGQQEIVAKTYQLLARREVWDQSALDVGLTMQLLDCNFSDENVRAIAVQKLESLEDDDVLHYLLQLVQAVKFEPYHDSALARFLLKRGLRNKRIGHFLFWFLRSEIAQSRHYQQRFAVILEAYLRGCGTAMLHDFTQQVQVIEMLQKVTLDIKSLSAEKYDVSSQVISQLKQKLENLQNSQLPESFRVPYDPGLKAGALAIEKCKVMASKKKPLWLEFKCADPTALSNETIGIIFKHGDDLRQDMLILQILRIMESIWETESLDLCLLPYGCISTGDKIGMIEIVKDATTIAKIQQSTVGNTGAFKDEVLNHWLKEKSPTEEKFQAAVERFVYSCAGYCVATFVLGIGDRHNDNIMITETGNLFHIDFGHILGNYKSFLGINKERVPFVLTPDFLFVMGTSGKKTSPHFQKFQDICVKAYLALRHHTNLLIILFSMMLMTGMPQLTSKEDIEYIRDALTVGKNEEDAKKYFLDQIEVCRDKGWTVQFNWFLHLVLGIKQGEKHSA

[4] = molecular target: PI3Kδ (p110δ/p85α) Recombinant Human Protein (Homo sapiens (Human), UniProt O00329); assay: PI3Kδ scintillation proximity assay; assay type: biochemical; settings: 2 μM ATP, 20 μM PIP2
Sequence of PI3Kδ (p110δ/p85α) Recombinant Human Protein (O00329 whole entry): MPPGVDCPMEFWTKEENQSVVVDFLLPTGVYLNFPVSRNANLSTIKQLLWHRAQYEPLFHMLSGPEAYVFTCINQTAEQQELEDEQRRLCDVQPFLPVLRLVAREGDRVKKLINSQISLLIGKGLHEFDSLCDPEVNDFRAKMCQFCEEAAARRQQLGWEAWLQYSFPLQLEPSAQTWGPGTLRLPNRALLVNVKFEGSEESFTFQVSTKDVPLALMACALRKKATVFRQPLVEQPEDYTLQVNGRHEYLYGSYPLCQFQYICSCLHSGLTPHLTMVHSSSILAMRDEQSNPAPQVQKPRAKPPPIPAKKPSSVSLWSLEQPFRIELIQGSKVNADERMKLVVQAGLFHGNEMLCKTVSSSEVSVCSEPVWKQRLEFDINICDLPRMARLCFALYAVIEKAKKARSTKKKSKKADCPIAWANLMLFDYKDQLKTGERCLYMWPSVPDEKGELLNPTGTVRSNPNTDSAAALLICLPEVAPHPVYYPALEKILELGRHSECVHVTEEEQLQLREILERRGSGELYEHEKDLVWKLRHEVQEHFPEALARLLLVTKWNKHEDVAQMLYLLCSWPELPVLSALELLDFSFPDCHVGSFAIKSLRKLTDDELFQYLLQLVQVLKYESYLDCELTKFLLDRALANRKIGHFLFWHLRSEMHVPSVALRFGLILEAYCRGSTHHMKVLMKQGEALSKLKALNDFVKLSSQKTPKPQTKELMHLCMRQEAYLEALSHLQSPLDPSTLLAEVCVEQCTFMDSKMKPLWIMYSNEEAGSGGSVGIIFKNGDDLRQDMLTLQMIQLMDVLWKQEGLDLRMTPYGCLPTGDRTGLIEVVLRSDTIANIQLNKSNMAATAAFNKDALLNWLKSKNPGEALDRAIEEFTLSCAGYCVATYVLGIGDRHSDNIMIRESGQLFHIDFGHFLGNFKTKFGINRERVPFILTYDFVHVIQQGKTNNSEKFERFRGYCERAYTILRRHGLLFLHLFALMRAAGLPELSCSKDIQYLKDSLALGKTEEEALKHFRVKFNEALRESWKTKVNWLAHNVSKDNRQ
Sequence of PI3Kδ (p110δ/p85α) Recombinant Human Protein (P27986 whole entry partner): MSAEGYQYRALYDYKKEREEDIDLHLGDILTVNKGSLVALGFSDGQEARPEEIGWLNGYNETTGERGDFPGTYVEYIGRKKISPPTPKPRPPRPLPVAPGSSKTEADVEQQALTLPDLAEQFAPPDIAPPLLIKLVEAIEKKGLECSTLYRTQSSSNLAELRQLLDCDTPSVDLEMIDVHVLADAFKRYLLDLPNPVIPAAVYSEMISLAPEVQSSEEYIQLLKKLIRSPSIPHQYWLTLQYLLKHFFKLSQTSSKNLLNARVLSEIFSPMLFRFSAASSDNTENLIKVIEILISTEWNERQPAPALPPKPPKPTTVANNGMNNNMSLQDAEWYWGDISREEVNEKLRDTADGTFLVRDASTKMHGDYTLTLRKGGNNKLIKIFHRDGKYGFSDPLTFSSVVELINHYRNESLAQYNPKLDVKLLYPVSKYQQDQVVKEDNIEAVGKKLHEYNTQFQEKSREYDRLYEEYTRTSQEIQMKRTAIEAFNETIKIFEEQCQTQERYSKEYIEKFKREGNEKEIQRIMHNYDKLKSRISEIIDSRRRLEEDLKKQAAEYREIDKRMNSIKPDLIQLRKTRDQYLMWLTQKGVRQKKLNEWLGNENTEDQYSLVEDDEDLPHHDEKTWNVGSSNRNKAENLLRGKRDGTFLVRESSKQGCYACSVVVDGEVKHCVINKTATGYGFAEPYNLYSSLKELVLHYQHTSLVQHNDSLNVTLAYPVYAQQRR

[5] = tested on: Phosphorylated Ribosomal Protein S6 (RPS6) in THP-1 cells; assay: THP-1 RPS6 ELISA assay; assay type: cell-based, human; settings: 10 nM MCP-1, read-out: PI3Kγ_THP1_RPS6_ELISA IC50

Row | Structure (SMILES) | IC50 [1] [µM] | JAK2/JAK1 [2] | IC50 [3] [µM] | IC50 [4] [µM] | IC50 ([5]; Homo sapiens, THP-1, THP-1 cells) [µM] | IC50 ([5]; THP-1 cells) [µM]
1 | N#CCC(C1CCN(c2cccc(Cl)n2)C1)n1cc(-c2ncnc3[nH]ccc23)cn1 (single isomer, unassigned) [Example 3, 3-[1-(6-chloropyridin-2-yl)pyrrolidin-3-yl]-3-[4-(7H-pyrrolo[2,3-d]pyrimidin-4-yl)-1H-pyrazol-1-yl]propanenitrile] | < 0.01 | >10 |  |  |  | 
2 | CC1CN(c2c(C(NC(=O)c3c(N)nn4cccnc34)C(F)(F)F)cc(Cl)c3c(C#N)ncn23)CCS1(=O)=O (centres unmarked) [Example 177, 2-Amino-N-(1-(8-chloro-1-cyano-5-(2-methyl-1,1-dioxidothiomorpholino)imidazo[1,5-a]pyridin-6-yl)-2,2,2-trifluoroethyl)pyrazolo[1,5-a]pyrimidine-3-carboxamide trifluoroacetate salt] |  |  | < 0.1 | ≥ 2 | < 1 | 
3 | CCC(NC(=O)c1c(N)nn2cccnc12)c1cc(Cl)c2cncn2c1N1CCS(=O)(=O)CC1 (centres unmarked) [Example 179, 2-Amino-N-{1-[8-chloro-5-(1,1-dioxidothio-morpholin-4-yl)imidazo[1,5-a]pyridin-6-yl]propyl} pyrazolo[1,5-a] pyrimidine-3-carboxamide trifluoroacetate salt] |  |  | < 0.1 | < 0.1 |  | < 0.5
